In PMC12441834, “Highly Potent and Subtype-Selective Sperm-Specific Potassium Channel SLO3 Inhibitors Display High Tissue Exposure in the Murine Female Reproductive Tract” (ACS Pharmacology & Translational Science, 2025):

Key:
[1] = Intrinsic clearance in liver microsomes; format: in vitro ADME, rat; details: for Rat CLhep, % Hepatic blood flow: rat liver microsomes; for CLhep predicted at 1 μM: rat, liver microsomes, pH 7.4, rat liver microsomes, read-out: Rat CLhep (in vitro hepatic clearance from microsomal CLint)
Experimental: The in vitro intrinsic clearance (CLint) was investigated in commercially obtained hepatic microsomes from mouse, rat, and human donors using the substrate depletion (i.e., loss-of-parent vs time, or half-life (t 1/2) method) approach with analyte detection via liquid chromatography–tandem mass spectrometry (LC-MS/MS). For each species, mean %parent remaining values at each time point were calculated from replicate raw data (analyte:IS peak area ratios) and used to determine in vitro t 1/2 and CLint.
Experiments were carried out by using a robot-assisted liquid handler (Bravo with BenchCell, Agilent). The compound was incubated (1 μM final concentration) in buffer (100 mM potassium phosphate pH 7.4 with 3 mM MgCl2) containing hepatic microsomes (0.5 mg/mL final concentration) from each species, discretely, at 37 °C under constant orbital shaking. After 5 min (preincubation), reactions were initiated by the addition of nicotinamide adenine dinucleotide phosphate (NADPH, 1 mM final concentration). At selected time intervals (0, 3, 7, 15, 25, and 45 min) postaddition of NADPH, aliquots (50 μL) were taken and placed into a 96-shallow-well plate containing ice-cold acetonitrile (150 μL) with carbamazepine (IS, 50 nM). The plates were then centrifuged (3000 rcf at 4 °C) for 10 min. The supernatants were transferred to a new 96-shallow-well daughter plate and diluted (1:1 v/v) with water (Milli-Q filtered). The plates were then sealed for preparation for LC-MS/MS analysis (see below).
Analyte:IS peak area ratios generated by LC-MS/MS were used to construct natural log-transformed %parent remaining vs time plots (using t = 0 min post-NADPH addition sample data as the starting point set to 100%). In vitro compound t 1/2 values were calculated by using the following equation: t1/2=ln(2)/k where k is the slope from the linear regression analysis of the natural log-transformed data (using means from all replicates at each time point). Resulting t 1/2 values were then used to calculate hepatic CLint values according to the following equation and with the use of species-specific scale-up factors for liver weight (grams) per total body weight (kg): CLint=0.693/invitrot1/2×1mLincubation/0.5mgmicrosomes×45mgmicrosomes/1gramliver×garamliver/kgbodywt
^aScale-up factors used are 45 (rat) and 20 (human).
Predicted hepatic clearance (CLhep) was calculated by using the following equation: CLhep=Qh×CLint/Qh+CLint
Q h represents hepatic blood flow (mL/min/kg): 21 for humans, 70 for rats, and 90 for mouse.

hERG = target: T1, hERG (Homo sapiens, UniProt Q12809); assay: hERG patch clamp electrophysiology (HEK-293-hERG); format: cell-based; details: for selectivity ratio: pH 7.35, hERG IC50 / hSLO3 IC50, read-out: hERG selectivity [fold] (SLO3 versus hERG); for IC50: whole-cell patch clamp, HEK-293-hERG
T1 construct: expressed in transfected cells
Experimental: Whole-cell patch-clamp electrophysiology was used to record hERG currents from a stably transfected monoclonal cell line expressing human hERG. The HEK-293-hERG cell line was generously provided by Dr. David Weaver (Vanderbilt University). Cells were cultured in a 5% CO2 incubator at 37 °C, dissociated with 0.25% Trypsin-EDTA, and seeded onto 12 mm circular coverslips (Electron Microscopy Sciences, PA, USA) for same-day whole-cell patch-clamp recordings. hERG currents were recorded at room temperature by using an AxoPatch 200B amplifier with Clampex 10.7 software (Molecular Devices, USA). The voltage-clamp protocol consisted of a 4-s step to +30 mV from a −80 mV holding potential, followed by a 4-s step to −40 mV, repeated every 10 s. Data were sampled at 5 kHz and filtered at 1 kHz. Patch pipettes, pulled from 1.5 mm OD thin-walled capillaries (Warner Instruments, MA, USA) using a Sutter P-1000 puller (Sutter Instrument, CA, USA), had resistances of 2–3 MΩ when filled with intracellular solution containing (mM): 135 KCl, 10 HEPES, 1 EGTA, 2 MgCl2, 2 Na2ATP (pH 7.35, adjusted with KOH). The extracellular solution contained (mM): 135 NaCl, 5 KCl, 2 CaCl2, 1 MgCl2, 5 Glucose, 10 HEPES, and 10 Sucrose (pH 7.35, adjusted with NaOH). After establishing stable baseline hERG currents, cells were perfused with compounds at concentrations of 0.03–30 μM until response saturation (typically 2–8 min). Recordings concluded with a 10 μM Quinidine solution to isolate Quinidine-sensitive currents, with compound responses expressed as fractions of this current. Peak “tail” current amplitudes at the beginning of −40 mV steps were analyzed using Clampfit 11.2 (Molecular Devices). IC50 values were calculated by fitting the Hill equation to concentration–response curves (CRCs) using the built-in Y = Bottom + (Top – Bottom)/(1 + (IC50/X)^HillSlope) model (nonlinear regression fit: [Inhibitor] vs response – Variable slope (four parameters)) in GraphPad Prism 10.4 (GraphPad Software).

[2] = human, HEK-293 cells stably expressing hERG

T1 sequence (Q12809 whole entry): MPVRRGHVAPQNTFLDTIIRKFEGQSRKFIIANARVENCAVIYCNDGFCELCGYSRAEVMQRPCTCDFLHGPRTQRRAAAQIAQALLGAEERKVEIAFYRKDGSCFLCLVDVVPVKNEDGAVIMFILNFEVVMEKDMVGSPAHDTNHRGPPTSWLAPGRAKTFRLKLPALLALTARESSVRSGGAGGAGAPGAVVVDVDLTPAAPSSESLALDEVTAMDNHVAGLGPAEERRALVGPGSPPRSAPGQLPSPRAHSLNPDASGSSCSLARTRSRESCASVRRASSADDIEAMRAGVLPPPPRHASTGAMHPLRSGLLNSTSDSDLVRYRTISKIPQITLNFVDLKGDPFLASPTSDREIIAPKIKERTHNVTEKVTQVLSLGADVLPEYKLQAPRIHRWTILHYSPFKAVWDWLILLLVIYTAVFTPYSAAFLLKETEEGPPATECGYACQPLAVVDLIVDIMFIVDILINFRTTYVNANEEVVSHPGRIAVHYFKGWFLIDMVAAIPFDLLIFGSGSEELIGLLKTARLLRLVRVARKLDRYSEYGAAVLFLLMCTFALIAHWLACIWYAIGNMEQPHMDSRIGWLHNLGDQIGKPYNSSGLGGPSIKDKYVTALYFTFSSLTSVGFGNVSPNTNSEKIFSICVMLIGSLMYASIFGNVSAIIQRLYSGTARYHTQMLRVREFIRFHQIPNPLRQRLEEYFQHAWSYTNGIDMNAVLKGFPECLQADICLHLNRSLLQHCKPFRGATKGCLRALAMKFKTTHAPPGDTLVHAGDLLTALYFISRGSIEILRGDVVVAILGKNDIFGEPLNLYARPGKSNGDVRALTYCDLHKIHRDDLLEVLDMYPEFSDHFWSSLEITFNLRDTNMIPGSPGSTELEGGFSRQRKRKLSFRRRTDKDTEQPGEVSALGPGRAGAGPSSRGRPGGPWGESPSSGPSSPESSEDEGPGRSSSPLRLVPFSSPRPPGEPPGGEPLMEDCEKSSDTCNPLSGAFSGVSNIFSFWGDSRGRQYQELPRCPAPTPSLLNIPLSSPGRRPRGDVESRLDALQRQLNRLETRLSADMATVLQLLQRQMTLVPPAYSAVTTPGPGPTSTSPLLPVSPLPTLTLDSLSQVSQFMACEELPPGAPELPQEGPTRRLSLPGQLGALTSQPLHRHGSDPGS

Row | Rat CLhep, % Hepatic blood flow [1] [%] | CLhep predicted at 1 μM [1] [mL/min/kg] | Compound | selectivity ratio (hERG; [2]) | IC50 (hERG) [µM] | IC50 (hERG; human, HEK-293 cells stably expressing hERG, pH 7.35) [µM]
1 |  |  | Cc1cc(Cl)cc2sc(OC3CCN(C(=O)CCCS(=O)(=O)c4cccc(Br)c4)CC3F)nc12 (stereo not drawn) [VU6045330] | 555 | 73.3 | 
2 | 76 | 53.5 | Cc1cc(Cl)cc2sc(O[C@@H]3CCN(C(=O)CCCS(=O)(=O)c4cccc(Br)c4)C[C@H]3F)nc12 [VU6047607] |  | 17 | 
3 | 72 | 50.5 | Cc1cc(Cl)cc2sc(O[C@@H]3CCN(C(=O)CCCS(=O)(=O)c4cccc(Br)c4)C[C@@H]3F)nc12 [VU6047608] |  |  | 
4 | 89 | 62.4 | Cc1cc(Cl)cc2sc(O[C@H]3CCN(C(=O)CCCS(=O)(=O)c4cccc(Br)c4)C[C@@H]3F)nc12 [VU6047609] |  | 56 | 

Row | Compound | Rat CLhep, % Hepatic blood flow [1] [%] | CLhep predicted at 1 μM [1] [mL/min/kg] | selectivity ratio (hERG; [2]) | IC50 (hERG) [µM] | IC50 (hERG; human, HEK-293 cells stably expressing hERG, pH 7.35) [µM]
5 | O=C(c1ccc(OCc2ccc(OC(F)(F)F)cc2)cc1)N1CCN(c2ccc(C(F)(F)F)cn2)CC1 [VU6032735] | 23 | 16.2 | 172 | 28.3 | 
6 | Cc1cc(Cl)cc2sc(O[C@H]3CCN(C(=O)CCCS(=O)(=O)c4cccc(Br)c4)C[C@H]3F)nc12 [VU6047606] | 71 | > 46 |  | 12 | 12.7
